The numbers were not newly measured in patent US20150024042A1 (POZEN INC., priority 2011, published 2015), which cites them from elsewhere.

For series [1] the following is noted: 95% CI 0.84 to 0.98.
The conditions of series [2]: repeated oral doses of 75 mg clopidogrel (base).
The conditions of series [3]: in vivo.

Each structure is given as a SMILES string.

As for `COC(=O)[C@H](c1ccccc1Cl)N1CCc2sccc2C1` [clopidogrel], the “cardiovascular events compared with aspirin, OR” value in series [1] was 0.91. Besides, the “time of peak plasma levels of the main circulating metabolite after dosing” value in series [2] was “approximately one”. The “gastrointestinal hemorrhage, incidence” value in series [3] is reported as 2.0 % annually.
